The values below come from BindingDB's records for doi:10.1021/jm0496077 (University of Southern California, 2005).

Assay [1] addresses Integrase (Human immunodeficiency virus 1). The assay can be described thus: Concentration required to inhibit catalytic activity of human immuno deficiency virus type 1 integrase.
Assay [2] has the same target. The assay can be described thus: Inhibitory concentration against human immuno deficiency virus type 1 integrase (3'-processing).
For assay [3] the target is unchanged. The assay can be described thus: Inhibitory concentration against human immuno deficiency virus type 1 integrase (Strand Transfer).

Broadly, the IC50 is the point on the concentration scale where inhibition reaches its midpoint.

The compound `O=C(/C=C(\O)c1ccc(Cc2ccc(F)cc2)o1)c1cc[nH]c1` had an IC50 in assay [1] of under 1 µM.

With `Cc1ccc2nc(C(C#N)=Cc3ccc(-c4ccc(O)c(C(=O)O)c4)o3)[nH]c2c1` [5-{5-[(E)-2-Cyano-2-(5-methyl-1H-benzoimidazol-2-yl)-vinyl]-furan-2-yl}-2-hydroxy-benzoic acid], the values for the IC50 in assay [2] and in assay [3] were 16 µM and 8 µM, respectively.

For `Cc1ccc(/C=C2\SC(=S)N(CC(=O)Nc3ccc([N+](=O)[O-])cc3O)C2=O)cc1` [N-(2-Hydroxy-4-nitro-phenyl)-2-{4-oxo-2-thioxo-5-[1-p-tolyl-meth-(Z)-ylidene]-thiazolidin-3-yl}-acetamide], the IC50 in assay [2] and in assay [3] was over 100 µM in each case.

As to `Cc1ccc(/C=C2\SC(=S)N(CC(=O)Nc3cc([N+](=O)[O-])ccc3O)C2=O)cc1` [N-(2-Hydroxy-5-nitro-phenyl)-2-{4-oxo-2-thioxo-5-[1-p-tolyl-meth-(Z)-ylidene]-thiazolidin-3-yl}-acetamide], the IC50 in assay [2] came out at 84 µM; in assay [3], 80 µM.

As for `O=C(CCN1C(=O)/C(=C/c2cccs2)SC1=S)Nc1cccc(O)c1` [N-(3-Hydroxy-phenyl)-3-{4-oxo-5-[1-thiophen-2-yl-meth-(Z)-ylidene]-2-thioxo-thiazolidin-3-yl}-propionamide], the IC50 in assay [2] and in assay [3] was over 100 µM throughout.

Consider `O=C(CN1C(=O)/C(=C2\SC(=S)N(CC(=O)Nc3ccc(O)cc3)C2=O)SC1=S)Nc1ccc(O)cc1` [N-(4-Hydroxy-phenyl)-2-{(E)-3''-[(4-hydroxy-phenylcarbamoyl)-methyl]-4,4''-dioxo-2,2''-dithioxo-[5,5'']bithiazolidinyliden-3-yl}-acetamide], for which the values for the IC50 in assay [2] and in assay [3] were 59 µM and 69 µM, respectively.

As for `COc1ccccc1/C=C1/SC(=S)N(CCC(=O)Nc2ccc(O)cc2)C1=O` [N-(4-Hydroxy-phenyl)-3-{5-[1-(2-methoxy-phenyl)-meth-(E)-ylidene]-4-oxo-2-thioxo-thiazolidin-3-yl}-propionamide], the figures for the IC50 in assay [2] and in assay [3] were 99 µM and 100 µM, respectively.

As for `COc1cc(/C=C2\SC(=S)N(CC(=O)Nc3cc(Cl)ccc3O)C2=O)cc(OC)c1OC` [N-(5-Chloro-2-hydroxy-phenyl)-2-{4-oxo-2-thioxo-5-[1-(3,4,5-trimethoxy-phenyl)-meth-(Z)-ylidene]-thiazolidin-3-yl}-acetamide], the results for the IC50 in assay [2] and in assay [3] were 32 µM and 17 µM, respectively.

With `O=C(CCN1C(=O)/C(=C/c2ccc3c(c2)OCO3)SC1=S)Nc1ccc2c(c1)OCO2` [N-Benzo[1,3]dioxol-5-yl-3-{5-[1-benzo[1,3]dioxol-5-yl-meth-(Z)-ylidene]-4-oxo-2-thioxo-thiazolidin-3-yl}-propionamide], the IC50 turned out to be 97 µM in assay [2] and 93 µM in assay [3].

Take `O=C(CCN1C(=O)/C(=C/c2cccs2)SC1=S)Nc1ccc2ccccc2c1` [N-Naphthalen-2-yl-3-{4-oxo-5-[1-thiophen-2-yl-meth-(Z)-ylidene]-2-thioxo-thiazolidin-3-yl}-propionamide]: the IC50 in assay [2] and in assay [3] was over 100 µM each time.

As to `CCOc1cc(C=C2SC(=S)N(NC(=O)c3ccccc3O)C2=O)ccc1O` [N-{5-[1-(3-Ethoxy-4-hydroxy-phenyl)-meth-(Z)-ylidene]-4-oxo-2-thioxo-thiazolidin-3-yl}-2-hydroxy-benzamide], the results for the IC50 in assay [2] and in assay [3] were 70 µM and 38 µM, respectively.

As for `O=C(NN1C(=O)C(=Cc2ccc(Br)cc2)SC1=S)c1ccccc1O` [N-{5-[1-(4-Bromo-phenyl)-meth-(Z)-ylidene]-4-oxo-2-thioxo-thiazolidin-3-yl}-2-hydroxy-benzamide], the IC50 in assay [2] came out at 52 µM; in assay [3], 27 µM.
